Experimental data reported in patent US12048684B2, “Arctigenin liquid nano-preparation and preparation method thereof” (Wuhan Academy of Agricultural Sciences, priority 2022, dated 2024).

Experiment: Solubility in pure water at room temperature
Format: physicochemical

For `COc1cc(C[C@H]2C(=O)OC[C@@H]2Cc2ccc(OC)c(OC)c2)ccc1O` [arctigenin raw material, arctigenin], the “solubility (water solubility of arctigenin)” value was less than 0.05%.
